What follows are compounds tested against T1, Human HIF-PHD2 (Homo sapiens, UniProt Q9GZT9) (assay: Inhibition of the hydroxylation of a HIF peptide by PHD2 (time resolved fluorescence, 384-well)). Details: FLAG-tagged full length PHD2; 0.2 μM 2-oxoglutarate, 0.5 μM HIF-1α peptide; 45 minutes at room temperature; read-out: Human HIF-PHD2 IC50.
T1 construct: FLAG-tagged full length PHD2 expressed in and purified from baculovirus-infected Sf9 cells; FLAG; made in house; host or cells: baculovirus-infected Sf9 cells
Type: biochemical
Experimental: To each well of a 384-well plate, 1 μL of test compounds in DMSO (final concentration ranging from 0.3 nM to 10 uM) were added into 20 μl of assay buffer (50 mM Tris pH 7.4/0.01% Tween-20/0.1 mg/ml bovine serum albumin/10 μM ferrous sulfate/1 mM sodium ascorbate/20 μg/ml catalase) containing 0.15 μg/ml FLAG-tagged full length PHD2 expressed in and purified from baculovirus-infected Sf9 cells. After a 5 min preincubation at room temperature, the enzymatic reactions were initiated by the addition of 4 μL of substrates {final concentrations of 0.2 μM 2-oxoglutarate and 0.5 μM HIF-1α peptide biotinyl-[…] […] After incubation for 45 minutes at room temperature, the reactions were terminated by the addition of a 25 μL quench/detection mix to a final concentration of 1 mM ortho-phenanthroline, 0.1 mM EDTA, 0.5 nM anti-(His)6 LANCE reagent (Perkin-Elmer Life Sciences), 100 nM AF647-labeled streptavidin (Invitrogen), and 2 μg/ml (His)6-VHL complex {S. Tan Protein Expr. Purif.

T1 sequence (Q9GZT9 whole entry): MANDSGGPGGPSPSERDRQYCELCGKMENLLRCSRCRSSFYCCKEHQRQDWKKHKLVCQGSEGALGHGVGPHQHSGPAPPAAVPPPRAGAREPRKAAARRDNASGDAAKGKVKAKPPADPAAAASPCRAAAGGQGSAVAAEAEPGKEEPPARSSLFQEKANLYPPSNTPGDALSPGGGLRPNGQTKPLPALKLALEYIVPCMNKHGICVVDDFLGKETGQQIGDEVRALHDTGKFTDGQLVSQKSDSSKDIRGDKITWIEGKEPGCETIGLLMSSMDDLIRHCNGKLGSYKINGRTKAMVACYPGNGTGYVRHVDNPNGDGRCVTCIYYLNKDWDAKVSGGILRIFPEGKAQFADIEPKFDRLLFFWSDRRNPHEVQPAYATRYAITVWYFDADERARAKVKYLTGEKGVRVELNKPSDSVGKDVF

IC50 | SMILES
9.4 nM | O=C(O)CNC(=O)c1c(O)c2c(F)ccc3c2n(c1=O)C(c1ccc(C(F)(F)F)cc1)CN3 (stereo not drawn) [Example 121, 2-(8-Fluoro-7-hydroxy-5-oxo-3-(4-(trifluoromethyl)phenyl)-1,2,3,5-tetrahydropyrido[1,2,3-de]quinoxaline-6-carboxamido)acetic acid]
0.9 nM | CS(=O)(=O)c1cc2c3c(c1)c(O)c(C(=O)NCC(=O)O)c(=O)n3CC(c1ccc(C(F)(F)F)nc1)C2 (stereo not drawn) [Example 85, 2-(1-hydroxy-9-(methylsulfonyl)-3-oxo-6-(6-(trifluoromethyl)pyridin-3-yl)-3,5,6,7-tetrahydropyrido[3,2,1-ij]quinoline-2-carboxamido)acetic acid]
4.3 nM | O=C(O)CNC(=O)c1c(O)c2ccc(F)c3c2n(c1=O)CC(c1ccc(C(F)(F)F)cc1)O3 (stereo not drawn) [Example 67, 2-(10-Fluoro-7-hydroxy-5-oxo-2-(4-(trifluoromethyl)phenyl)-3,5-dihydro-2H-[1,4]oxazino[2,3,4-ij]quinoline-6-carboxamido)acetic acid]
12 nM | CC(O)c1cc2c3c(c1)c(O)c(C(=O)NCC(=O)O)c(=O)n3C(Cc1ccc(C(F)(F)F)cc1)CO2 (stereo not drawn) [Example 35, 2-(7-Hydroxy-9-(1-hydroxyethyl)-5-oxo-3-(4-(trifluoromethyl)benzyl)-3,5-dihydro-2H-[1,4]oxazino[2,3,4-ij]quinoline-6-carboxamido)acetic acid]
13.7 nM | O=C(O)CNC(=O)c1c(O)c2c(F)ccc3c2n(c1=O)C(c1ccc(C(F)(F)F)cc1)CS3 (stereo not drawn) [Example 98, 2-(8-Fluoro-7-hydroxy-5-oxo-3-(4-(trifluoromethyl)phenyl)-3,5-dihydro-2H-[1,4]thiazino[2,3,4-ij]quinoline-6-carboxamido)acetic acid]
14 nM | O=C(O)CNC(=O)c1c(O)c2c(OC(F)(F)F)ccc3c2n(c1=O)CC(c1ccc(C(F)(F)F)cc1)O3 (single isomer, unassigned) [Example 86, 2-(7-Hydroxy-5-oxo-8-(trifluoromethoxy)-2-(4-(trifluoromethyl)phenyl)-3,5-dihydro-2H-[1,4]oxazino[2,3,4-ij]quinoline-6-carboxamido)acetic acid]
7.3 nM | O=C(O)CNC(=O)c1c(O)c2cccc3c2n(c1=O)CC(c1cncs1)C3 (racemic) [Example 50, 2-(1-Hydroxy-3-oxo-6-(thiazol-5-yl)-3,5,6,7-tetrahydropyrido[3,2,1-ij]quinoline-2-carboxamido)acetic acid]
1 nM | N#Cc1ccc2c3c1c(O)c(C(=O)NCC(=O)O)c(=O)n3CC(c1ccc(C(F)(F)F)cc1)O2 (stereo not drawn) [Example 13, 2-(8-Cyano-7-hydroxy-5-oxo-2-(4-(trifluoromethyl)phenyl)-3,5-dihydro-2H-[1,4]oxazino[2,3,4-ij]quinoline-6-carboxamido)acetic acid]

Same assay, conditions: FLAG-tagged full length PHD2; 0.2 μM 2-oxoglutarate, 0.5 μM HIF-1α peptide; 45 minutes at room temperature; read-out: MS m/z (M + 1)+ and human HIF-PHD2 IC50

IC50 | SMILES
16 nM | O=C(O)CNC(=O)c1c(O)c2ccc(F)c3c2n(c1=O)C(c1ccc(C(F)(F)F)cc1)CO3 (stereo not drawn) [Example 164, 2-(10-fluoro-7-hydroxy-5-oxo-3-(4-(trifluoroMethyl)phenyl)-3,5-dihydro-2H-[1,4]oxazino[2,3,4-ij]quinoline-6-carboxamido)acetic acid]
6.1 nM | N#Cc1ccc(-c2ccc(C3COc4cccc5c(O)c(C(=O)NCC(=O)O)c(=O)n3c45)cc2)cc1 (stereo not drawn) [Example 146, N-{[3-(4′-cyanobiphenyl-4-yl)-7-hydroxy-5-oxo-2,3-dihydro-5H-[1,4]oxazino[2,3,4-ij]quinolin-6-yl]carbonyl}glycine]
16 nM | O=C(O)CNC(=O)c1c(O)c2cc(F)cc3c2n(c1=O)C(c1ccc(C(F)(F)F)cc1)CO3 (stereo not drawn) [Example 158, 2-(9-fluoro-7-hydroxy-5-oxo-3-(4-(trifluoromethyl)phenyl)-3,5-dihydro-2H-[1,4]oxazino[2,3,4-ij]quinoline-6-carboxamido)acetic acid]
2.9 nM | N#Cc1ccc2c3c1c(O)c(C(=O)NCC(=O)O)c(=O)n3C(c1ccc(C(F)(F)F)cc1)CO2 (stereo not drawn) [Example 180, ammonium 2-(8-cyano-7-hydroxy-5-oxo-3-(4-(trifluoromethyl)phenyl)-3,5-dihydro-2H-[1,4]oxazino[2,3,4-ij]quinoline-6-carboxamido)acetate]

Source: patent publication US9969752B2, “Inhibitors of HIF prolyl hydroxylase” (MERCK SHARP & DOHME CORP., priority 2014, dated 2018)
